From US20160193216A1 (Nimbus Iris, Inc., priority 2012, published 2016)

Target: T1, IRAK4 (Homo sapiens, UniProt Q9NWZ3)
T1 sequence (Q9NWZ3 1-460): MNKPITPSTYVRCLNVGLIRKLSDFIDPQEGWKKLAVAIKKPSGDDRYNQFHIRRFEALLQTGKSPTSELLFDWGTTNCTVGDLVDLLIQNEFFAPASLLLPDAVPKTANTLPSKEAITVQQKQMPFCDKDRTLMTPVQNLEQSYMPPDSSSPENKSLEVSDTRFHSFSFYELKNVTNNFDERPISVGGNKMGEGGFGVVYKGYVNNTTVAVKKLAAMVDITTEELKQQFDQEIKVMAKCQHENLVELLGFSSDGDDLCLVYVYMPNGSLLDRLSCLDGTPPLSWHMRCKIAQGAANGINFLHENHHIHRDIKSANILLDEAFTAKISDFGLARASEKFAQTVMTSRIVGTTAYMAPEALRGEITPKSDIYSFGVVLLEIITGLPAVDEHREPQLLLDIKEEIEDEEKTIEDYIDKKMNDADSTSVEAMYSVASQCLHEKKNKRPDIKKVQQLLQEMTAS
Test: IRAK-4 activity inhibition assay (Caliper)
Type: biochemical
Conditions: 37 μM ATP, 3.5 nM IRAK4
Description: A 1× kinase base buffer was prepared from 50 mM HEPES, pH 7.5 and 0.0015% Brij-35. A stop buffer was prepared from 100 mM HEPES, pH 7.5, 0.015% Brij-35, 0.2% Coating Reagent #3, and 50 mM EDTA.
Test compound was diluted to 50× of the final desired highest inhibitor concentration in reaction by 100% DMSO. 100 μl of this compound dilution was transferred to a well in a 96-well plate.
Test compound was serially diluted by transferring 30 μl to 60 μl of 100% DMSO in the next well and so forth for a total of 10 concentrations. 100 μl of 100% DMSO was added to two empty wells for no compound control and no enzyme control in the same 96-well plate.
A new 96-well plate was marked as intermediate plate. 5 μl of compound serial dilution was transferred from source plate to the corresponding wells of the intermediate plate. 45 μl of 1× kinase base buffer (KB buffer) was added to each well of the intermediate plate. The intermediate plate was placed for 10 min on a shaker.
5 μl of each well was transferred from the 96-well intermediate plate to a 384-well plate in duplicates. […] A2 of the 96-well plate is transferred to A3 and A4 of the 384-well plate, and so on.
IRAK4 and DTT in 1× kinase base buffer was added.
Assay plate already contained 5 μl of compound in 10% DMSO. Added 10 μl of 2.5× enzyme solution to each well of the 384-well assay plate, except no enzyme control wells. […] Added 10 μl of 1× kinase base buffer to no enzyme control wells in the assay plate. Incubated at room temperature for 10 min.
Added 10 μl of 2.5× peptide solution to each well of the 384-well assay plate. […] Incubated at 28° C. for 40 minutes. Added 25 μl of stop buffer to stop reaction. Collected data on Caliper.
Copied conversion % data from Caliper program. Converted conversion % values to percent inhibition values. Percent inhibition=(max−conversion %)/(max−min)*100, where “max” means the conversion % of DMSO control and “min” means the conversion % of no enzyme control.
The compound numbers correspond to the compound numbers in Table 1. […] “NA” stands for “not assayed.”

In the case of CN(C)[C@H]1CC[C@H](Oc2ncnc3sc4c(c23)CC(CCO)OC4)CC1 (some centres unmarked) [Compound I-219, 2-(3-[[4-(dimethylamino)cyclohexyl]oxy]-1-oxa-8-thia-4,6-diazatricyclo[7.4.0.0[2,7]]trideca-1(9),2,4,6-tetraen-12-yl)ethan-1-ol], the IC50 is reported as < 5 µM.

NC(=O)C[C@H]1CCc2sc3ncnc(N[C@H]4CC[C@H](N5CCOCC5)CC4)c3c21 [Compound I-97, 2-[(3R)-12-[[4-(morpholin-4-yl)cyclohexyl]amino]-7-thia-9,11-diazatricyclo[6.4.0.0̂[2,6]]dodeca-1(12),2(6),8,10-tetraen-3-yl]acetamide] was tested, and the IC50 was < 5 µM.

Work on CCC(O)[C@H]1CCc2sc3ncnc(O[C@H]4CC[C@H](N(C)C)CC4)c3c21 (stereo partly drawn) [Compound I-50, (S)-1-((S)-4-(((1r,4S)-4-(dimethylamino)cyclohexyl)oxy)-6,7-dihydro-5H-cyclopenta[4,5]thieno[2,3-d]pyrimidin-5-yl)propan-1-ol] yielded an IC50 of 5 to 20 µM.

For CN(C)[C@H]1CC[C@H](Oc2ncnc3sc4c(c23)[C@H](CCO)CC4)CC1 [Compound I-33, 2-[(3S)-12-[[4-(dimethylamino)cyclohexyl]oxy]-7-thia-9,11-diazatricyclo[6.4.0.0[2,6]]dodeca-1(12),2(6),8,10-tetraen-3-yl]ethan-1-ol], the IC50 was < 5 µM.

For CCC(O)C[C@@H]1CCc2sc3ncnc(O[C@H]4CC[C@H](N5CCOCC5)CC4)c3c2C1 (stereo partly drawn) [Compound I-183, 1-((R)-4-(((1r,4R)-4-morpholinocyclohexyl)oxy)-5,6,7,8-tetrahydrobenzo[4,5]thieno[2,3-d]pyrimidin-6-yl)butan-2-ol], the IC50 was < 5 µM.

With NC(=O)C[C@H]1CCc2sc3ncnc(O[C@H]4CC[C@H](N5CC6(COC6)C5)CC4)c3c21 [Compound I-152, 2-[(3R)-12-[(4-[2-oxa-6-azaspiro[3.3]heptan-6-yl]cyclohexyl)oxy]-7-thia-9,11-diazatricyclo[6.4.0.0[2,6]]dodeca-1(8),2(6),9,11-tetraen-3-yl]acetamide] the IC50 was < 5 µM.

With C[C@@H]1COCCN1[C@H]1CC[C@H](Oc2ncnc3sc4c(c23)[C@@H](CC(N)=O)CC4)CC1 [Compound I-227, 2-[(3R)-12-([4-[(3R)-3-methylmorpholin-4-yl]cyclohexyl]oxy)-7-thia-9,11-diazatricyclo[6.4.0.0[2,6]]dodeca-1(8),2(6),9, 11-tetraen-3-yl]acetamide] the IC50 was < 5 µM.

NC(=O)C1CCc2sc3ncnc(N[C@H]4CC[C@H](N5CCOCC5)CC4)c3c2C1 (some centres unmarked) [Compound I-203, 3-[[4-(morpholin-4-yl)cyclohexyl]amino]-8-thia-4,6-diazatricyclo[7.4.0.0[2,7]]trideca-1(9),2,4,6-tetraene-12-carboxamide] was tested, and the IC50 was < 5 µM.

For CN(C)[C@H]1CC[C@H](Oc2ncnc3sc4c(c23)CN(S(=O)(=O)CCO)CC4)CC1 [Compound I-209, 2-(3-[[4-(dimethylamino)cyclohexyl]oxy]-8-thia-4,6, 12-triazatricyclo[7.4.0.0[2,7]]trideca-1(9),2,4,6-tetraene-12-sulfonyl)ethan-1-ol], the IC50 was < 5 µM.

In the case of CN(C1COC1)[C@H]1CC[C@H](Oc2ncnc3sc4c(c23)[C@@H](CC(N)=O)CC4)CC1 [Compound I-129, 2-((R)-4-(((1r,4R)-4-(methyl(oxetan-3-yl)amino)cyclohexyl)oxy)-6,7-dihydro-5H-cyclopenta[4,5]thieno[2,3-d]pyrimidin-5-yl)acetamide], the IC50 is reported as < 5 µM.

With NC(=O)[C@H]1CCc2sc3ncnc(O[C@H]4CC[C@H](N5CCC(F)(F)CC5)CC4)c3c2C1 [Compound I-236, (12S)-3-[[4-(4,4-difluoropiperidin-1-yl)cyclohexyl]oxy]-8-thia-4,6-diazatricyclo[7.4.0.0[2,7]]trideca-1(9),2(7),3,5-tetraene-12-carboxamide] the IC50 was < 5 µM.

In the case of CN(C)[C@H]1CC[C@H](Oc2ncnc3sc4c(c23)[C@@H](CO)CC4)CC1 [Compound I-19, ((R)-4-(((1r,4R)-4-(dimethylamino)cyclohexyl)oxy)-6,7-dihydro-5H-cyclopenta[4,5]thieno[2,3-d]pyrimidin-5-yl)methanol], the IC50 is reported as < 5 µM.

Compound CC(=O)N1Cc2sc3ncnc(O[C@H]4CC[C@H](N5CCOCC5)CC4)c3c2C1 [Compound I-198, 1-(12-[[4-(morpholin-4-yl)cyclohexyl]oxy]-7-thia-4,9,11-triazatricyclo[6.4.0.0[2,6]]dodeca-1(12),2(6),8, 10-tetraen-4-yl)ethan-1-one] has an IC50 of 20 to 50 µM.

CN(C)[C@H]1CC[C@H](Oc2ncnc3sc4c(c23)CN(C(=O)CCCO)CC4)CC1 [Compound I-190, 1-(3-[[4-(dimethylamino)cyclohexyl]oxy]-8-thia-4,6, 12-triazatricyclo[7.4.0.0[2,7]]trideca-1(9),2,4,6-tetraen-12-yl)-4-hydroxybutan-1-one] gave an IC50 of 20 to 50 µM.

In the case of CCNC(=O)CC1CCc2sc3ncnc(O[C@H]4CC[C@H](N(C)C)CC4)c3c21 (stereo in doubt) [Compound I-35, 2-[(3S)-12-[[4-(dimethylamino)cyclohexyl]oxy]-7-thia-9,11-diazatricyclo[6.4.0.0[2,6]]dodeca-1(12),2(6),8,10-tetraen-3-yl]-N-ethylacetamide], the IC50 is reported as < 5 µM.

In the case of C[C@H](O)C[C@H]1CCc2sc3ncnc(O[C@H]4CC[C@H](N(C)CC(=O)N5CCCC5)CC4)c3c21 [Compound I-69, 2-(((1R,4r)-4-(((R)-5-((S)-2-hydroxypropyl)-6,7-dihydro-5H-cyclopenta[4,5]thieno[2,3-d]pyrimidin-4-yl)oxy)cyclohexyl)(methyl)amino)-1-(pyrrolidin-1-yl)ethanone], the IC50 is reported as < 5 µM.

Compound CN(C)[C@H]1CC[C@H](Oc2ncnc3sc4c(c23)[C@H](CC(=O)Nc2ccc(F)cn2)CC4)CC1 [Compound I-38, 2-[(3S)-12-[[4-(dimethylamino)cyclohexyl]oxy]-7-thia-9,11-diazatricyclo[6.4.0.0[2,6]]dodeca-1(8),2(6),9,11-tetraen-3-yl]-N-(5-fluoropyridin-2-yl)acetamide] has an IC50 of 20 to 50 µM.

With CN(C)[C@H]1CC[C@H](Oc2ncnc3sc4c(c23)C(C)(C)CC4)CC1 [Compound I-7, (1r,4r)-4-((5,5-dimethyl-6,7-dihydro-5H-cyclopenta[4,5]thieno[2,3-d]pyrimidin-4-yl)oxy)-N,N-dimethylcyclohexanamine] the IC50 was < 5 µM.

C[C@@H](O)CNC(=O)C[C@H]1CCc2sc3ncnc(O[C@H]4CC[C@H](N(C)C)CC4)c3c21 [Compound I-141, 2-((R)-4-(((1r,4R)-4-(dimethylamino)cyclohexyl)oxy)-6,7-dihydro-5H-cyclopenta[4,5]thieno[2,3-d]pyrimidin-5-yl)-N—((R)-2-hydroxypropyl)acetamide] gave an IC50 of 5 to 20 µM.

CN(C)[C@H]1CC[C@H](Nc2ncnc3sc4c(c23)C(C(=O)NCc2ccccc2)CC4)CC1 (some centres unmarked) [Compound I-24, N-benzyl-12-[[4-(dimethylamino)cyclohexyl]amino]-7-thia-9,11-diazatricyclo[6.4.0.0̂[2,6]]dodeca-1(12),2(6),8,10-tetraene-3-carboxamide] gave an IC50 of 20 to 50 µM.

For CC[C@@H](O)C[C@H]1CCc2sc3ncnc(O[C@H]4CC[C@](CC)(N(C)C)CC4)c3c21 [Compound I-101, (2R)-1-[(3R)-12-[[4-(dimethylamino)-4-ethylcyclohexyl]oxy]-7-thia-9,11-diazatricyclo[6.4.0.0[2,6]]dodeca-1(8),2(6),9,11-tetraen-3-yl]butan-2-ol], the IC50 was < 5 µM.

In the case of OCC[C@H]1CCc2sc3ncnc(O[C@H]4CC[C@H](N5CCOCC5)CC4)c3c21 [Compound I-66, 2-[(3R)-12-[[4-(morpholin-4-yl)cyclohexyl]oxy]-7-thia-9,11-diazatricyclo[6.4.0.0[2,6]]dodeca-1(12),2(6),8,10-tetraen-3-yl]ethan-1-ol], the IC50 is reported as < 5 µM.

With CC#CCOC[C@H]1CCc2sc3ncnc(O[C@H]4CC[C@H](N(C)C)CC4)c3c21 [Compound I-56, 4-[[(3S)-3-[(but-2-yn-1-yloxy)methyl]-7-thia-9,11-diazatricyclo[6.4.0.0[2,6]]dodeca-1(8),2(6),9,11-tetraen-12-yl]oxy]-N,N-dimethylcyclohexan-1-amine] the IC50 was < 5 µM.
